Test results reported in ChEMBL document CHEMBL4190297, “Cafestol, a Bioactive Substance in Coffee, Has Antidiabetic Properties in KKAy Mice” (J Nat Prod, 2017).
Active and inactive are the calls of the source. The calls are words filed in the database; no cut-off is given here.

Key:
[1] = species: Mus musculus; assay: Effect on GLUT2 mRNA expression levels in liver of KK-Ay diabetic mouse model at 0.4 to 1.1 mg added daily to normal chow pellets for 10 weeks by qRT-PCR analysis; type: functional, organism-based
[2] = species: Mus musculus; assay: Effect on SOD2 mRNA expression levels in adipose tissue of KK-Ay diabetic mouse model at 0.4 to 1.1 mg added daily to normal chow pellets for 10 weeks by qRT-PCR analysis; type: functional, organism-based
[3] = species: Mus musculus; assay: Toxicity in KK-Ay diabetic mouse model assessed as effect on body weight at 1.1 mg added daily to normal chow pellets for 4 weeks; type: organism-based; details: in vivo, po, 672 h
[4] = species: Mus musculus; assay: Effect on Acaca mRNA expression levels in liver of KK-Ay diabetic mouse model at 0.4 to 1.1 mg added daily to normal chow pellets for 10 weeks by qRT-PCR analysis; type: functional, organism-based
[5] = species: Mus musculus; assay: Toxicity in KK-Ay diabetic mouse model assessed as increase in body weight at 1.1 mg added daily to normal chow pellets for 8 weeks; type: organism-based; details: in vivo, po, 1344 h
[6] = species: Mus musculus; assay: Effect on Hprt1 mRNA expression levels in liver of KK-Ay diabetic mouse model at 0.4 to 1.1 mg added daily to normal chow pellets for 10 weeks by qRT-PCR analysis; type: functional, organism-based
[7] = species: Mus musculus; assay: Effect on G6PD mRNA expression levels in liver of KK-Ay diabetic mouse model at 0.4 to 1.1 mg added daily to normal chow pellets for 10 weeks by qRT-PCR analysis; type: functional, organism-based
[8] = species: Mus musculus; assay: Effect on JNK1 mRNA expression levels in liver of KK-Ay diabetic mouse model at 0.4 to 1.1 mg added daily to normal chow pellets for 10 weeks by qRT-PCR analysis; type: functional, organism-based
[9] = species: Mus musculus; assay: Induction of 3.3 mM glucose-stimulated insulin secretion in pancreatic islets isolated from KK-Ay diabetic mouse model at 1.1 mg added daily to normal chow pellets for 10 weeks followed by glucose stimulation of isolated pancreatic islets for 1 hr by radioimmunoassay relative to control; type: functional
[10] = species: Mus musculus; assay: Antidiabetic activity in KK-Ay diabetic mouse model assessed as reduction in plasma glucagon levels at 0.4 mg added daily to normal chow pellets for 10 weeks relative to control by radioimmunoassay; type: functional; parameters: scale not given: the % may be the effect or the level left
[11] = species: Mus musculus; assay: Antidiabetic activity in KK-Ay diabetic mouse model assessed as reduction in plasma glucagon levels at 1.1 mg added daily to normal chow pellets for 10 weeks relative to control by radioimmunoassay; type: functional; parameters: scale not given: the % may be the effect or the level left
[12] = species: Mus musculus; assay: Effect on FAS mRNA expression levels in adipose tissue of KK-Ay diabetic mouse model at 0.4 to 1.1 mg added daily to normal chow pellets for 10 weeks by qRT-PCR analysis; type: functional, organism-based
[13] = species: Mus musculus; assay: Effect on Akt2 mRNA expression levels in adipose tissue of KK-Ay diabetic mouse model at 0.4 to 1.1 mg added daily to normal chow pellets for 10 weeks by qRT-PCR analysis; type: functional, organism-based
[14] = species: Mus musculus; assay: Induction of […] glucose-stimulated insulin secretion in pancreatic islets isolated from KK-Ay diabetic mouse model at 1.1 mg added daily to normal chow pellets for 10 weeks followed by glucose stimulation of isolated pancreatic islets for 1 hr by radioimmunoassay relative to control; type: functional
[15] = species: Mus musculus; assay: Effect on FABP4 mRNA expression levels in muscle of KK-Ay diabetic mouse model at 0.4 to 1.1 mg added daily to normal chow pellets for 10 weeks by qRT-PCR analysis; type: functional, organism-based
[16] = species: Mus musculus; assay: Effect on Akt2 mRNA expression levels in liver of KK-Ay diabetic mouse model at 0.4 to 1.1 mg added daily to normal chow pellets for 10 weeks by qRT-PCR analysis; type: functional, organism-based
[17] = species: Mus musculus; assay: Effect on Sirt1 mRNA expression levels in liver of KK-Ay diabetic mouse model at 0.4 to 1.1 mg added daily to normal chow pellets for 10 weeks by qRT-PCR analysis; type: functional, organism-based
[18] = species: Mus musculus; assay: Effect on JNK1 mRNA expression levels in muscle of KK-Ay diabetic mouse model at 0.4 to 1.1 mg added daily to normal chow pellets for 10 weeks by qRT-PCR analysis; type: functional, organism-based
[19] = species: Mus musculus; assay: Effect on PPARgamma mRNA expression levels in adipose tissue of KK-Ay diabetic mouse model at 0.4 to 1.1 mg added daily to normal chow pellets for 10 weeks by qRT-PCR analysis; type: functional, organism-based
[20] = species: Mus musculus; assay: Effect on Lipc mRNA expression levels in liver of KK-Ay diabetic mouse model at 0.4 to 1.1 mg added daily to normal chow pellets for 10 weeks by qRT-PCR analysis; type: functional, organism-based
[21] = species: Mus musculus; assay: Effect on 18s rRNA expression levels in adipose tissue of KK-Ay diabetic mouse model at 0.4 to 1.1 mg added daily to normal chow pellets for 10 weeks by qRT-PCR analysis; type: functional, organism-based
[22] = species: Mus musculus; assay: Effect on AMPKalpha2 mRNA expression levels in adipose tissue of KK-Ay diabetic mouse model at 0.4 to 1.1 mg added daily to normal chow pellets for 10 weeks by qRT-PCR analysis; type: functional, organism-based
[23] = species: Mus musculus; assay: Effect on Pi3K mRNA expression levels in adipose tissue of KK-Ay diabetic mouse model at 0.4 to 1.1 mg added daily to normal chow pellets for 10 weeks by qRT-PCR analysis; type: functional, organism-based
[24] = species: Mus musculus; assay: Effect on GYS2 mRNA expression levels in adipose tissue of KK-Ay diabetic mouse model at 0.4 to 1.1 mg added daily to normal chow pellets for 10 weeks by qRT-PCR analysis; type: functional, organism-based
[25] = species: Mus musculus; assay: Effect on LXRalpha mRNA expression levels in liver of KK-Ay diabetic mouse model at 0.4 to 1.1 mg added daily to normal chow pellets for 10 weeks by qRT-PCR analysis; type: functional, organism-based
[26] = species: Mus musculus; assay: Effect on 18s rRNA expression levels in liver of KK-Ay diabetic mouse model at 0.4 to 1.1 mg added daily to normal chow pellets for 10 weeks by qRT-PCR analysis; type: functional, organism-based
[27] = species: Mus musculus; assay: Effect on CD36 mRNA expression levels in muscle of KK-Ay diabetic mouse model at 0.4 to 1.1 mg added daily to normal chow pellets for 10 weeks by qRT-PCR analysis; type: functional, organism-based
[28] = species: Mus musculus; assay: Antidiabetic activity in KK-Ay diabetic mouse model assessed as increase in insulin levels in plasma at 0.4 mg added daily to normal chow pellets for 10 weeks by radioimmunoassay; type: functional, organism-based
[29] = species: Mus musculus; assay: Antidiabetic activity in KK-Ay diabetic mouse model assessed as mean fasting blood glucose level at 1.1 mg added daily to normal chow pellets for 10 weeks (reference value: 18 +/- 1.2 mmol/L); type: functional
[30] = species: Mus musculus; assay: Effect on Adipor1 mRNA expression levels in muscle of KK-Ay diabetic mouse model at 0.4 to 1.1 mg added daily to normal chow pellets for 10 weeks by qRT-PCR analysis; type: functional, organism-based
[31] = species: Mus musculus; assay: Effect on 18s rRNA expression levels in muscle of KK-Ay diabetic mouse model at 0.4 to 1.1 mg added daily to normal chow pellets for 10 weeks by qRT-PCR analysis; type: functional, organism-based
[32] = species: Mus musculus; assay: Antidiabetic activity in KK-Ay diabetic mouse model assessed as increase in INSR mRNA expression levels in liver tissue at 1.1 mg added daily to normal chow pellets for 10 weeks by qRT-PCR analysis; type: functional, organism-based
[33] = species: Mus musculus; assay: Effect on Gcgr mRNA expression levels in muscle of KK-Ay diabetic mouse model at 0.4 to 1.1 mg added daily to normal chow pellets for 10 weeks by qRT-PCR analysis; type: functional, organism-based

In the case of C[C@@]12CCc3occc3[C@H]1CC[C@@]13C[C@H](CC[C@H]12)[C@@](O)(CO)C3, the Activity [1] is reported as “inactive”, the Activity [2] is reported as “inactive” and the Activity [3] is reported as “Non-Toxic”. For the same molecule, the Activity [4] was “inactive”, the Activity [5] was greater than 3 g and the Activity [6] was “inactive”. The Activity [7] was “inactive”, the Activity [8] was “inactive” and the Activity [9] was 44%. For the same molecule, the Activity [10] was 28%, the Activity [11] was 20% and the Activity [12] was “inactive”. The Activity [13] was “inactive”, the Activity [14] was 75% and the Activity [15] was “inactive”. The Activity [16] was “inactive”, the Activity [17] was “inactive” and the Activity [18] was “inactive”. The Activity [19] was “inactive”, the Activity [20] was “inactive” and the Activity [21] was “inactive”. For the same molecule, the Activity [22] was “inactive”, the Activity [23] was “inactive” and the Activity [24] was “inactive”. The Activity [25] was “inactive”, the Activity [26] was “inactive” and the Activity [27] was “inactive”. The Activity [28] was “inactive”, the Activity [29] was 12.9 mmol/L and the Activity [30] was “inactive”. For the same molecule, the Activity [31] was “inactive”, the Activity [32] was “Active” and the Activity [33] was “inactive”.
